From the supplement of paper PMC10307832

Experiments:
Assay in all cases: relative viability (nuclei count vs DMSO), 5 days (fraction); higher = more cells survive
IU1-47 + Crizotinib = compound: CC1=CC(=C(N1C2=CC=C(C=C2)Cl)C)C(=O)CN3CCCCC3 [IU1-47] + C[C@@H](Oc1cc(-c2cnn(C3CCNCC3)c2)cnc1N)c1c(Cl)ccc(F)c1Cl [Crizotinib] (partner 1 µM)
Procedure, shortened: (§1)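 The day after seeding in 1536-well plates, lung cancer cell lines were treated by pin tool with a single drug, or with a fixed anchor-drug dose together with five library-drug doses (not always all listed) in √10 steps. After 5 days, a combined fix-and-stain solution (final 0.05% Triton X-100, 1% formaldehyde, 1 ug/ml Hoechst) was added. Nuclei counted on 4× images gave relative viability as treated counts over vehicle counts, reported as the median of duplicate plates.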

FG-4592 + Trametinib = compound: Cc1nc(C(=O)NCC(=O)O)c(O)c2ccc(Oc3ccccc3)cc12 [FG-4592] + CC(=O)Nc1cccc(-n2c(=O)n(C3CC3)c(=O)c3c(Nc4ccc(I)cc4F)n(C)c(=O)c(C)c32)c1 [Trametinib] (partner 0.02 µM)
Procedure, shortened: as §1

FG-4592 + Tozasertib = compound: Cc1nc(C(=O)NCC(=O)O)c(O)c2ccc(Oc3ccccc3)cc12 [FG-4592] + Cc1cc(Nc2cc(N3CCN(C)CC3)nc(Sc3ccc(NC(=O)C4CC4)cc3)n2)n[nH]1 [Tozasertib] (partner 0.1 µM)
Procedure, shortened: as §1

FG-4592 + Decitabine = compound: Cc1nc(C(=O)NCC(=O)O)c(O)c2ccc(Oc3ccccc3)cc12 [FG-4592] + Nc1ncn([C@H]2C[C@H](O)[C@@H](CO)O2)c(=O)n1 [Decitabine] (partner 2 µM)
Procedure, shortened: as §1

Question: How did the relative viability (IU1-47 + Crizotinib; first compound 0.08 µM) turn out when UMC-11 was run?
Answer: 0.564

Question: And the relative viability (IU1-47 + Crizotinib; first compound 0.253 µM)?
Answer: 0.641

Question: And the relative viability (IU1-47 + Crizotinib; first compound 0.8 µM)?
Answer: 0.476

Question: What about the relative viability (IU1-47 + Crizotinib; first compound 2.53 µM) of the same cell line?
Answer: 0.673

Question: And the relative viability (IU1-47 + Crizotinib; first compound 8 µM)?
Answer: 0.574

Question: What about the relative viability (FG-4592 + Trametinib; first compound 0.08 µM) of the same cell line?
Answer: 0.626

Question: And the relative viability (FG-4592 + Trametinib; first compound 0.253 µM)?
Answer: 0.697

Question: What about the relative viability (FG-4592 + Trametinib; first compound 0.8 µM) of the same cell line?
Answer: 0.504

Question: What about the relative viability (FG-4592 + Trametinib; first compound 2.53 µM) of the same cell line?
Answer: 0.528

Question: And the relative viability (FG-4592 + Trametinib; first compound 8 µM)?
Answer: 0.452

Question: And the relative viability (FG-4592 + Tozasertib; first compound 0.08 µM)?
Answer: 0.217

Question: What about the relative viability (FG-4592 + Tozasertib; first compound 0.253 µM) of the same cell line?
Answer: 0.184

Question: And the relative viability (FG-4592 + Tozasertib; first compound 0.8 µM)?
Answer: 0.199

Question: And the relative viability (FG-4592 + Tozasertib; first compound 2.53 µM)?
Answer: 0.203

Question: What about the relative viability (FG-4592 + Tozasertib; first compound 8 µM) of the same cell line?
Answer: 0.198

Question: And the relative viability (FG-4592 + Decitabine; first compound 0.08 µM)?
Answer: 0.54

Question: What about the relative viability (FG-4592 + Decitabine; first compound 0.253 µM) of the same cell line?
Answer: 0.604

Question: And the relative viability (FG-4592 + Decitabine; first compound 0.8 µM)?
Answer: 0.532

Question: What about the relative viability (FG-4592 + Decitabine; first compound 2.53 µM) of the same cell line?
Answer: 0.423

Question: What about the relative viability (FG-4592 + Decitabine; first compound 8 µM) of the same cell line?
Answer: 0.365
